Patent publication US8791132B2, “Compounds and methods for treatment of hypertension” (Medivation Technologies, Inc., priority 2011, dated 2014)

Assays:
Type in all cases: cell-based
[1] = system: SH-SY5Y cells; experiment: Cell death (LDH release) in hydrogen peroxide-treated SH-SY5Y cells; conditions: LDH release normalized to vehicle (=100); hydrogen peroxide 300 μM, 24 h; compounds at 10 nM
Experimental: (§1) SH-SY5Y cells cultured in DMEM/F12 media supplemented with 10% FBS were seeded in 96-well microplates at 150,000 cells/cm^2. After 24 h, cells were depleted from FBS and kept in culture for 24 h before the experiment. Cells were then treated with 4-Br-A23187 (2 μM), hydrogen peroxide (300 μM) or the mitochondrial toxin rotenone (25 μM) in the presence of vehicle or Compound of the Invention for 24 h. Cell death was determined by measurements of LDH release according to the Cytotoxicity Detection KitPlus (Roche, Mannheim, Germany). Cell viability was determined by measuring the capacity of cells to metabolize MTS tetrazolium (MTS) according to the Cytotoxicity Detection KitPlus (Roche, Mannheim, Germany) and MTS reduction is assessed by the CellTiter 96® AQueous One Solution Cell Proliferation assay (Promega Corporation, Madison, Wis., USA). Compounds were screened at 10 nM, using DMSO as vehicle. Assay results for the experiments with hydrogen peroxide are presented as the LDH release (cell death) of untreated cells (control), hydrogen peroxide-treated cells (vehicle), and co-incubation of hydrogen peroxide with Compounds of the Invention treated cells normalized to the vehicle (FIG. 17A). This assay assesses the ability of the test compounds to protect against cell death that is mediated by mitochondrial dysfunction. In the assay, the calcium ionophore 4-Br-A23187 is used to challenge the cells, causing calcium levels to rise in mitochondria, which leads to depolarization and cell death. Test compounds are assessed for their ability to prevent cell death in response to challenge with 4-Br-A23187.

[2] = system: SH-SY5Y cells over-expressing α-syn; experiment: Cell viability (MTS reduction) in SH-SY5Y cells over-expressing α-synuclein; conditions: Homo sapiens, 336 h, α-syn over-expression (−dox), compounds at 0.1 nM, +dox control = 100, 14 days, read-out: Relative cell viability protection
Experimental: Cell Culture. SH-SY5Y cells stably transfected with a doxycyline-inducible wild-type α-synuclein (α-syn) gene along with control SH-SY5Y cells over-expressing the β-galactosidase (β-gal) gene (a gift from L. Stefanis, Division of Basic Neurosciences, Biomedical Research Foundation of the Academy of Athens, Athens, Greece) are cultured as described by Vekrellis et al. (Vekrellis K, Xilouri M, Emmanouilidou E, Stefanis L. (2009). Inducible over-expression of α-syn in human neuronal cells leads to caspase-dependent non-apoptotic death. J Neurochem 109, 1348-1362). In accordance with this method, cells are cultured and maintained in RPMI 1640, 10% fetal bovine serum supplemented with 250 μg/mL G418 and 50 μg/mL Hygromycin B. Expression of α-syn is switched off in stock cultures with doxycycline (2 μg/mL). For experimental procedures, cells are plated at (4−8×10^4 cells/cm^2) and differentiated in absence of doxycycline and in the presence of 20 μM all-trans retinoic acid (RA) (Sigma, St Louis, Mo., USA).
Viability Assay: Cells are cultured in 96-well plates. After 24 h, cells are treated with RA and Compounds of Invention at 0.1 and 10 nM in the absence of doxycyline. Culture medium with RA and drugs is fully replaced after 7 days. Cell viability is measured by the release of lactate dehydrogenase (LDH) from necrotic cells into the culture medium and by measuring the capacity of cells to metabolize MTS tetrazolium (MTS) after 14 days in culture. LDH leakage is assessed according to the Cytotoxicity Detection KitPlus (Roche, Mannheim, Germany) and MTS reduction is assessed by the CellTiter 96® AQueous One Solution Cell Proliferation assay (Promega Corporation, Madison, Wis., USA).
Assay results for the experiments with α-syn over-expression are presented as the MTS reduction capacity (cell viability) of control cells (+dox), cells over-expressing α-syn (−dox), and cells over-expressing α-syn incubated with Compounds of the Invention at 0.1 nM (FIG. 18A) or 10 nM (FIG. 18B).

[3] = system: SH-SY5Y cells; experiment: Cell viability (MTS reduction) in 4-Br-A23187-treated SH-SY5Y cells; conditions: MTS reduction capacity; 4-Br-A23187 2 μM, 24 h; compounds at 10 nM
Experimental: as §1, with “After” for “SH-SY5Y cells cultured in DMEM/F12 media supplemented with 10% FBS were seeded in 96-well microplates at 150,000 cells/cm^2. After”

| Compound | LDH release (cell death), relative to vehicle [1] | viability at 0.0001 µM [2] | Relative cell viability protection [3] |
| --- | --- | --- | --- |
| Cc1ccc2c(c1)c1c(n2CC(O)c2ccncc2)CCNC1 (single isomer, unassigned) [39a, 2-(8-methyl-1,2,3,4-tetrahydro-pyrido[4,3-b]indol-5-yl)-1-pyridin-4-yl-ethanol] | 82.94 | 72.5% | – |
| CN1CCc2c(c3cc(Cl)ccc3n2CC(O)c2ccncc2)C1 (single isomer, unassigned) [4a] | 81.64 | 73.4% | – |
| Cc1ccc2c(c1)c1c(n2CC(O)c2ccncc2)CCN(C)C1 (single isomer, unassigned) [3b] | 86.70 | 70.8% | 0.3673 |
| Cc1ccc2c(c1)c1c(n2CC(C)(O)c2cccnc2)CCN(C)C1 (single isomer, unassigned) [5b, 1-(1,2,3,4-tetrahydro-2,8-dimethylpyrido[4,3-b]indol-5-yl)-2-(pyridin-3-yl)propan-2-ol] | 73.73 | 76.5% | 0.3748 |
